Experimental data from US9115092B2, “Substituted quinazoline and pyrido-pyrimidine derivatives” (Asana Biosciences, LLC, priority 2010, dated 2015).

How the values were obtained:
pAKT(5473) in PC3 tumor = assay: In vivo PK/PD study, PC3 tumor bearing mice, pAkt(5473); details: Mus musculus, 50 mg/kg po single dose
Protocol: (§1) PC3 cells were cultured at 37° C. in a 5% CO2 incubator using Hams F12 K medium. Ten million (10^7) cells were injected subcutaneously to the right flank region of athymic male mice (Harlan, age: 6-7 weeks, weight: about 20 g). Tumor bearing mice were randomized when the tumor volume reached about 250 mm^3 and three mice were used per each time point. Test compounds of formula (I) were formulated in 40% HPCD in 1×PBS, pH 7.4 and dosed orally at 50 mg/kg single dose (dose volume−10 mL/kg). Plasma and tumor samples were collected at 0 (vehicle control animals), 1, 4 and 24 hours post dosing. Blood was drawn (retro orbital) to a tube containing 0.2% EDTA for plasma collection. The tumor was excised from the mouse and immediately frozen in liquid nitrogen for PD analysis. Tumor and plasma drug concentrations were measured for PK analysis using LC-MS.
(§2) Snap frozen tumor samples were pulverized in a mortar (Belart) containing liquid nitrogen and tumor powder was stored at −80° C. until analysis. Pre coated ELISA kits (Cell Signaling Technology; pAKT(T308), CST#7135; pAKT(5473), CST#7134 and pS6RP, CST#7205) were used for PD analysis. Tumor powder was transferred to Eppendorf® tubes and lysis buffer (1 mL) was added to the powder. […] The detection for pAKT was based on chemiluminescence and pS6RP was based on absorbance. […]

PI3 kinase isoform δ = PI3 kinase isoform δ (Homo sapiens, UniProt O00329); assay: PI3 Kinase TR-FRET assay, isoform δ; type: biochemical; details: read-out: inhibition of PI3 kinase isoform δ, IC50
Protocol: The ability of compounds of the invention to inhibit PI3K activity was determined in a homogeneous TR-FRET assay using a PI3K assay kit (Millipore, USA; cat #33-016) according to manufacturer's instructions. PI3-Kinases (isoforms α, β, γ and δ) catalyze the phosphorylation of phosphatidylinositol, PIP2 to PIP3 in the presence of ATP and Mg^2+. The PIP3 product is detected by displacement of biotin-PIP3 from an energy transfer complex consisting of Europium labeled anti-GST monoclonal antibody, a GST-tagged PH domain, biotinylated PIP3 and Streptavidin-APC. Excitation of Europium in the complex results in an energy transfer to the APC and a fluorescence emission at 665 nm. The PIP3 product displaces biotin-PIP3 from the complex resulting in a loss of energy transfer and thus a decrease in signal.
To test for the ability of compounds to inhibit the activity of PI3Kα (wild-type), exemplary compounds of formula (I) were dissolved in DMSO and directly distributed into 384-well plates at a volume of 0.5 μL. 14.5 μL of P110/P85α/PIP2 mixture in buffer (obtained from the Millipore kit) containing MgCl2 (40 mM) and DTT (5 mM) was added to compound wells and incubated for 60 min at room temperature. P110/P85α was expressed in SF9 insect cells and purified nickel column extraction. Five ng of wild-type P110/P85α was used in the assay. The kinase reaction was started by the addition of ATP. The assay concentrations of both PIP2 and ATP were 10 μM. The reaction mixture was incubated for 30 min at room temperature and was terminated by the addition of stop mix and detection mix. Fluorescence was measured at 615 and 665 nm upon excitation at 340 nm in a Victor™ V5 fluorometer (Perkin Elmer, USA). The fluorescence emission ratio at 665 to 615 nm, proportional to the kinase activity, was plotted against the compound concentration to generate dose-response curves and IC50 values were determined using GraphPad Prism® 5 software.
The activity of PI3 kinase isoforms β, γ and δ were assayed in a similar manner to the assay protocol described above for PI3Kα, by substituting the appropriate p110/p85 isoform for the p110α/p85α. Compounds of formula (I) caused inhibition of PI3 kinase isoforms β, γ and δ as determined by these assays. For example, the compounds of examples 3, 51, 54, 111, 113, 115, and 253 each caused inhibition of PI3 kinase isoform β with IC50 values <50 nM. The compounds of examples 104, 133, 146 and 152 each caused inhibition of PI3 kinase isoform β with IC50 values <500 nM. The compounds of examples 3, 51, 54, 104, 111, 113, 115, 133, 253, and 152 each caused inhibition of PI3 kinase isoform γ with IC50 values <500 nM. […] The compounds of examples 2, 3, 51, 54, 111, 113, and 253 each caused inhibition of PI3 kinase isoform […] with IC50 values >1 μM.

pS6RP in BT474 tumor = assay: In vivo PK/PD study, BT474 tumor-bearing xenograft mice, pS6RP; details: for suppression of pS6RP in tumor tissue samples by Western blot: 2 weeks at 40 mg/kg bid po
Protocol: as §1
Snap frozen tumor samples were pulverized in a mortar (Belart) containing liquid nitrogen and tumor powder was stored at −80° C. until analysis. Pre coated ELISA kits (Cell Signaling Technology; pAKT(T308), CST#7135; pAKT(5473), CST#7134 and pS6RP, CST#7205) were used for PD analysis. Tumor powder was transferred to Eppendorf® tubes and lysis buffer (1 mL) was added to the powder. Protease and phosphatase inhibitors (SIGMA) and phenylmethanesulfonylfluoride (PMSF) were added to tumor powder and mixed by vortexing followed by sonication (15 sec). Samples were kept on an ice bath for 30 min. Supernatant was separated after centrifugation at 10,000 rpm for 20 min at 4° C. Supernatant was re-centrifuged and fresh supernatant was aliquoted to different tubes. Total protein was estimated using a BCA kit (Thermo Scientific) and 50 μg total protein was loaded to each well. […] The detection for pAKT was based on chemiluminescence and pS6RP was based on absorbance. […]
(§3) In vivo pharmacokinetic/pharmacodynamic (PK/PD) studies were also carried out using BT474 tumor cells and the corresponding tumor-bearing xenograft mice, and compounds of the invention were determined to be active in this assay. […]

[1] = test system: pAkt(T308) in BT474 tumor; assay: In vivo PK/PD study, BT474 tumor-bearing xenograft mice, pAkt(T308); details: 2 weeks at 40 mg/kg bid po
Protocol: as §1
(§4) Snap frozen tumor samples were pulverized in a mortar (Belart) containing liquid nitrogen and tumor powder was stored at −80° C. until analysis. […] The detection for pAKT was based on chemiluminescence and pS6RP was based on absorbance. […]
as §3

[2] = test system: pAkt(5473) in BT474 tumor; assay: In vivo PK/PD study, BT474 tumor-bearing xenograft mice, pAkt(5473); details: 2 weeks at 40 mg/kg bid po
Protocol: as §1, §4, §3

BT474 tumor cells = assay: In vivo efficacy study (tumor growth suppression), BT474 xenograft; details: BT474 xenograft mice, after 14 days of dosing at 40 mg/kg bid po
pAKT(T308) in PC3 tumor = assay: In vivo PK/PD study, PC3 tumor bearing mice, pAkt(T308) Western blot; details: 50 mg/kg po, at 8 hours
Protocol: as §1, §2

PI3 kinase isoform δ, sequence (O00329 whole entry, the tested form may be a part, canonical isoform): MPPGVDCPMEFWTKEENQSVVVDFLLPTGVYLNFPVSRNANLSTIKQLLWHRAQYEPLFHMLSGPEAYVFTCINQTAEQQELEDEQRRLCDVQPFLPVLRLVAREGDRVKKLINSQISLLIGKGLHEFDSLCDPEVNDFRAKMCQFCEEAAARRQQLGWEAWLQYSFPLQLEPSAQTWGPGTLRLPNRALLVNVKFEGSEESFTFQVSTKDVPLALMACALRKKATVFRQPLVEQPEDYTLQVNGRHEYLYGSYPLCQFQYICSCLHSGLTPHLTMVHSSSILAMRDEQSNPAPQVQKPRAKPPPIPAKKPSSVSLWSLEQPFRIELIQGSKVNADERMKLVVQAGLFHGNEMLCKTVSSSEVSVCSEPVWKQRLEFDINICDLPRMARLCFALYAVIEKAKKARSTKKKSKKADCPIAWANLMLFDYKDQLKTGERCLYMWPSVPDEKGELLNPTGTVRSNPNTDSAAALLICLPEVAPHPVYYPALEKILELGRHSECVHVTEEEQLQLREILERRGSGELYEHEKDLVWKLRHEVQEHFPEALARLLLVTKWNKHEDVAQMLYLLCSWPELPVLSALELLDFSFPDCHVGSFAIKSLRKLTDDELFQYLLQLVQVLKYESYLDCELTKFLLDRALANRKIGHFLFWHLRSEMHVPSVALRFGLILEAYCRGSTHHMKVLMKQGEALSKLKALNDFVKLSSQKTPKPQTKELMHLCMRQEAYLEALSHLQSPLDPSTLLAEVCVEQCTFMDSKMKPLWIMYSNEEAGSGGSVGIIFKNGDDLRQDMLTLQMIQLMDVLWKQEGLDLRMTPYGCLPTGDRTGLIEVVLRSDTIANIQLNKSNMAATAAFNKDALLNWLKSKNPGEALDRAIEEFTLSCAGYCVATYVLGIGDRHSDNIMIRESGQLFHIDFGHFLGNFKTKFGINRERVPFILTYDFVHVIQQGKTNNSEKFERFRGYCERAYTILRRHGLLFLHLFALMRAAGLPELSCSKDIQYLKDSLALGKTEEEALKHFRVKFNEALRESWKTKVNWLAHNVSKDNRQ
PI3 kinase isoform δ, sequence (P27986 whole entry partner, the tested form may be a part, canonical isoform): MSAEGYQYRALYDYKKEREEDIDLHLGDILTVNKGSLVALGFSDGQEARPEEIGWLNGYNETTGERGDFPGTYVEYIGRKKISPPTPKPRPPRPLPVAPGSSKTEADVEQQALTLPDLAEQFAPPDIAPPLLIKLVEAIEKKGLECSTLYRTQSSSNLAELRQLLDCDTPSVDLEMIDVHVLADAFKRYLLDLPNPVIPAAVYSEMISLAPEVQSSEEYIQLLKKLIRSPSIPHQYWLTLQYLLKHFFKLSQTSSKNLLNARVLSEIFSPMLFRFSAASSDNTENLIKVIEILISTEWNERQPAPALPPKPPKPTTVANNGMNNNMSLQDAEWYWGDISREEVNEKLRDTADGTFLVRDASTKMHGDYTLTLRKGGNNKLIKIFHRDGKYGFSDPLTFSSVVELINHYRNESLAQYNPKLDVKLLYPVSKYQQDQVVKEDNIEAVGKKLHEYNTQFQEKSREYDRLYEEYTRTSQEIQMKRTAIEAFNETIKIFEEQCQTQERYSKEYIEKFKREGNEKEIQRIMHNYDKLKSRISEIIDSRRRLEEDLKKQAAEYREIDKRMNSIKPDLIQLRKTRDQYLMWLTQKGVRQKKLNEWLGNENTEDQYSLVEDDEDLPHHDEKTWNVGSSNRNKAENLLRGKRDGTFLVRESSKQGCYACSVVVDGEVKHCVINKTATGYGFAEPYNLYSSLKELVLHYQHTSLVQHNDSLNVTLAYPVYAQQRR

CN(C)C(=O)c1ccc(NC(=O)Nc2ccc(-c3nc(N4CCOCC4)c4ccc(-c5cncnc5)cc4n3)cc2)cc1 [Example 1, N,N-Dimethyl-4-(3-{4-[4-morpholin-4-yl-7-pyrimidin-5-yl-quinazolin-2-yl)-phenyl]-ureido}-benzamide] showed an inhibition at 50 mg/kg (pAKT(5473) in PC3 tumor; at 1 and 4 hours) of about 50%.

With Cc1ccc(-c2ccc3c(N4CCOCC4)nc(-c4ccc(NC(=O)Nc5ccc(C(=O)N(C)C)cc5)cc4)nc3c2)o1 [Example 2, N,N-Dimethyl-4-(3-{4-[7-(5-methyl-furan-2-yl)-4-morpholin-4-yl-quinazolin-2-yl]-phenyl}-ureido)-benzamide] the IC50 (PI3 kinase isoform δ) was over 1 µM, the inhibition at 50 mg/kg (pAKT(5473) in PC3 tumor; at 4 and 24 hours) was 25 to 30% and the “suppression of pS6RP in tumor tissue samples by Western blot” value (pS6RP in BT474 tumor) was “significant suppression”. The “suppression of pAkt(T308) in tumor tissue samples by Western blot” value [1] was “significant suppression”, the “suppression of pAkt(5473) in tumor tissue samples by Western blot” value [2] was “significant suppression” and the “tumor growth inhibition relative to vehicle control group” value (BT474 tumor cells) was “about 65%”.

CN(C)C(=O)c1ccc(NC(=O)Nc2ccc(-c3nc(N4CCOCC4)c4ccc(-c5ccco5)cc4n3)cc2)cc1 [Example 51, 4-{3-[4-(7-furan-2-yl-4-morpholin-4-yl-quinazolin-2-yl)-phenyl]-ureido}-N,N-dimethyl-benzamide] was tested, and the IC50 (PI3 kinase isoform δ) was over 1 µM, the “suppression of pS6RP in tumor tissue samples by Western blot” value (pS6RP in BT474 tumor) was “significant suppression” and the inhibition at 30 mg/kg (pS6RP in BT474 tumor; Mus musculus, BT-474, 30 mg/kg po, at 4 and 24 hours) was 30 to 40%. The “suppression of pAkt(T308) in tumor tissue samples by Western blot” value [1] was “significant suppression”, the “suppression of pAkt(5473) in tumor tissue samples by Western blot” value [2] was “significant suppression” and the “tumor growth inhibition relative to vehicle control group” value (BT474 tumor cells) was “about 70%”.

CN(C)C(=O)c1ccc(NC(=O)Nc2ccc(-c3nc(N4CCOCC4)c4ccc(-c5cncnc5)cc4n3)cc2)c(F)c1 [Example 133, 3-fluoro-N,N-dimethyl-4-(3-(4-(4-morpholino-7-(pyrimidin-5-yl)quinazolin-2-yl)phenyl)ureido)-benzamide] was tested, and the “suppression of pAkt(T308) by Western blot analysis” value (pAKT(T308) in PC3 tumor) was “significant suppression”.

CN(C)C(=O)c1ccc(NC(=O)Nc2ccc(-c3nc(N4CCOCC4)c4ccc(-c5cccnc5F)cc4n3)cc2)c(F)c1 [Example 146, 3-fluoro-4-(3-(4-(7-(2-fluoropyridin-3-yl)-4-morpholino-quinazolin-2-yl)phenyl)ureido)-N,N-dimethyl-benzamide] was tested, and the “suppression of pAkt(T308) by Western blot analysis” value (pAKT(T308) in PC3 tumor) was “significant suppression”.
